In this experiment the target is T1, human orexin type 2 receptor (hOX2R) (Homo sapiens, UniProt O43614).
T1 construct: expressed in transfected cells
T1 sequence (O43614 1-444): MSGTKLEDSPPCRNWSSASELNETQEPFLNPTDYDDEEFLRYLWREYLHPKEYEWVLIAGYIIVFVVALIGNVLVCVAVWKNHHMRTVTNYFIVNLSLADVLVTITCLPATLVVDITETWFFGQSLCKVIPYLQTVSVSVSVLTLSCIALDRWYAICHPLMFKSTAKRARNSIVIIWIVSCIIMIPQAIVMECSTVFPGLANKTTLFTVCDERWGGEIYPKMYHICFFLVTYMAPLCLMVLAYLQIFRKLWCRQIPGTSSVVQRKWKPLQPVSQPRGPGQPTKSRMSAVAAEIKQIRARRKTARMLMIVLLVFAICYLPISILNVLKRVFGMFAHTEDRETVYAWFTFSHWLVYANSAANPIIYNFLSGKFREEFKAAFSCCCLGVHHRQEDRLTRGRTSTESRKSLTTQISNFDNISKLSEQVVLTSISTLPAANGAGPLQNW
Put plainly: Measurement of orexin type 2 receptor agonist activity (FLIPR calcium fluorescence). The class given is cell-based. To be noted: CHO cells expressing hOX2R, FLIPR calcium fluorescence; for EC50: read-out: hOx2 pEC50 (converted); for Emax: CHO, read-out: hOx2 Emax (%). The procedure, abridged:
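Agonism was read as fluorescence in cells stably expressing human OX2R. E. is the response at 10 μM relative to orexin A as full agonist (100%).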

Molecules are shown by their SMILES.

The Emax is the greatest response seen or fitted, relative to the assay's reference. For `CS(=O)(=O)N[C@@H]1[C@H](Cc2cccc(-c3ccccc3)c2F)N(C(=O)NCC2COC2)CC12CC2` [Compound 334, (6S,7S)-6-((2-fluoro-[1,1′-biphenyl]-3-yl)methyl)-7-(methylsulfonamido)-N-(oxetan-3-ylmethyl)-5-azaspiro[2.4]heptane-5-carboxamide], the EC50 was 1 to 10 nM and the Emax fell in the range of 90 to 100%.

Turning to `CS(=O)(=O)N[C@@H]1[C@H](Cc2cccc(-c3ccccc3)c2F)N(C(=O)NC[C@H]2CCOC2)CC12CC2` [Compound 335, (6S,7S)-6-((2-fluoro-[1,1′-biphenyl]-3-yl)methyl)-7-(methylsulfonamido)-N-(((R)-tetrahydrofuran-3-yl)methyl)-5-azaspiro[2.4]heptane-5-carboxamide], the EC50 is 1 to 10 nM and the Emax was in the range of 90 to 100%.

For the molecule `CO[C@@H](C)CNC(=O)N1CC2(CC2)[C@H](NS(C)(=O)=O)[C@@H]1Cc1cccc(-c2ccccc2)c1F` [Compound 336, (6S,7S)-6-((2-fluoro-[1,1′-biphenyl]-3-yl)methyl)-N-((S)-2-methoxypropyl)-7-(methylsulfonamido)-5-azaspiro[2.4]heptane-5-carboxamide], the EC50 was 1 to 10 nM and the Emax was in the range of 90 to 100%.

Take `C[C@@H](CF)NC(=O)N1CC2(CC2)[C@H](NS(C)(=O)=O)[C@@H]1Cc1cccc(-c2ccccc2)c1F` [Compound 337, (6S,7S)-6-((2-fluoro-[1,1′-biphenyl]-3-yl)methyl)-N-((S)-1-fluoropropan-2-yl)-7-(methylsulfonamido)-5-azaspiro[2.4]heptane-5-carboxamide]: the EC50 was 1 to 10 nM and the Emax was 90 to 100%.

`C[C@@H](C#N)S(=O)(=O)N[C@@H]1[C@H](Cc2cccc(-c3ccccc3)c2)N(C(=O)[C@H]2CCO2)CC12CC2` [Compound 338, (S)-N-((6S,7S)-6-([1,1′-biphenyl]-3-ylmethyl)-5-((R)-oxetane-2-carbonyl)-5-azaspiro[2.4]heptan-7-yl)-1-cyanoethane-1-sulfonamide]: the EC50 is 10 to 100 nM and the Emax was in the range of 90 to 100%.

As to `COc1c(C[C@H]2[C@@H](NS(C)(=O)=O)C3(CC3)CN2C(=O)C2CC(F)C2)cccc1-c1ccccc1` (stereo partly drawn) [Compound 339, N-((6S,7S)-5-(3-fluorocyclobutane-1-carbonyl)-6-((2-methoxy-[1,1′-biphenyl]-3-yl)methyl)-5-azaspiro[2.4]heptan-7-yl)methanesulfonamide], the “hOx2 pEC50” value is “*** (pEC50 ranging between 7.0 and 8.0)”; the Emax lay within 70 to 80%.

For the molecule `COc1c(C[C@H]2[C@@H](NS(C)(=O)=O)C3(CC3)CN2C(=O)C2CC(F)C2)cccc1-c1ccccc1` (stereo partly drawn) [Compound 340, N-((6S,7S)-5-(3-fluorocyclobutane-1-carbonyl)-6-((2-methoxy-[1,1′-biphenyl]-3-yl)methyl)-5-azaspiro[2.4]heptan-7-yl)methanesulfonamide], the “hOx2 Emax (%)” value is “D (Emax ranging between 60 and 70)”; the “hOx2 pEC50” value was “*** (pEC50 ranging between 7.0 and 8.0)”.

Consider `CC(C#N)NC(=O)N1CC2(CC2)[C@H](NS(C)(=O)=O)[C@@H]1Cc1cccc(-c2ccccc2)c1F` (stereo partly drawn) [Compound 341, (6S,7S)-N-(1-cyanoethyl)-6-((2-fluoro-[1,1′-biphenyl]-3-yl)methyl)-7-(methylsulfonamido)-5-azaspiro[2.4]heptane-5-carboxamide], for which the EC50 is 0.0794 to 1 nM and the Emax is 90 to 100%.

Turning to `CCCNC(=O)N1CC2(CC2)[C@H](NS(C)(=O)=O)[C@@H]1Cc1cccc(-c2ccccc2)c1OC` [Compound 342, (6S,7S)-6-((2-methoxy-[1,1′-biphenyl]-3-yl)methyl)-7-(methylsulfonamido)-N-propyl-5-azaspiro[2.4]heptane-5-carboxamide], the EC50 was 10 to 100 nM and the Emax was in the range of 70 to 80%.

As to `COc1c(C[C@H]2[C@@H](NS(C)(=O)=O)C3(CC3)CN2C(=O)NCC(F)(F)F)cccc1-c1ccccc1` [Compound 343, (6S,7S)-6-((2-methoxy-[1,1′-biphenyl]-3-yl)methyl)-7-(methylsulfonamido)-N-(2,2,2-trifluoroethyl)-5-azaspiro[2.4]heptane-5-carboxamide], the EC50 was 10 to 100 nM and the Emax fell in the range of 70 to 80%.

Regarding `CCS(=O)(=O)N[C@@H]1[C@H](Cc2cccc(-c3ccccc3)c2F)N(C(=O)[C@H](O)COC)CC12CC2` [Compound 344, N-((6S,7S)-6-((2-fluoro-[1,1′-biphenyl]-3-yl)methyl)-5-((R)-2-hydroxy-3-methoxypropanoyl)-5-azaspiro[2.4]heptan-7-yl)ethanesulfonamide], the EC50 was 1 to 10 nM and the Emax lay within 90 to 100%.

`[2H]C([2H])([2H])N(C(=O)N1CC2(CC2)[C@H](NS(C)(=O)=O)[C@@H]1Cc1cccc(-c2ccccc2)c1F)C([2H])([2H])[2H]` [Compound 345, (6S,7S)-6-((2-fluoro-[1,1′-biphenyl]-3-yl)methyl)-N,N-bis(methyl-d3)-7-(methylsulfonamido)-5-azaspiro[2.4]heptane-5-carboxamide]: the EC50 is 1 to 10 nM and the Emax was in the range of 90 to 100%.

Regarding `C[C@H](F)C(=O)N1CC2(CC2)[C@H](NS(C)(=O)=O)[C@@H]1Cc1cccc(-c2ccccc2)c1F` [Compound 346, N-((6S,7S)-6-((2-fluoro-[1,1′-biphenyl]-3-yl)methyl)-5-((S)-2-fluoropropanoyl)-5-azaspiro[2.4]heptan-7-yl)methanesulfonamide], the EC50 was 1 to 10 nM and the Emax is 90 to 100%.

Consider `CN(C)S(=O)(=O)N[C@@H]1[C@H](Cc2cc(F)cc(-c3ccccc3)c2F)N(C(=O)C2CCO2)CC12CC2` (stereo partly drawn) [Compound 347, N-((6S,7S)-6-((2,5-difluoro-[1,1′-biphenyl]-3-yl)methyl)-5-((R)-oxetane-2-carbonyl)-5-azaspiro[2.4]heptan-7-yl)-N,N-dimethylsulfuric diamide], for which the EC50 is 1 to 10 nM and the Emax was in the range of 90 to 100%.

As to `[2H]c1c([2H])c([2H])c(-c2cc(F)cc(C[C@H]3[C@@H](NS(C)(=O)=O)C4(CC4)CN3C(=O)[C@H]3CCO3)c2F)c([2H])c1[2H]` [Compound 348, N-((6S,7S)-6-((2,5-difluoro-[1,1′-biphenyl]-3-yl-2′,3′,4′,5′,6′-d5)methyl)-5-((R)-oxetane-2-carbonyl)-5-azaspiro[2.4]heptan-7-yl)methanesulfonamide], the EC50 was 1 to 10 nM and the Emax fell in the range of 90 to 100%.

As to `O=C([C@H]1CCO1)N1CC2(CC2)[C@H](NS(=O)(=O)C2CC2)[C@@H]1Cc1cc(F)cc(-c2ccccc2)c1F` [Compound 349, N-((6S,7S)-6-((2,5-difluoro-[1,1′-biphenyl]-3-yl)methyl)-5-((R)-oxetane-2-carbonyl)-5-azaspiro[2.4]heptan-7-yl)cyclopropanesulfonamide], the EC50 is 1 to 10 nM and the Emax lay in the range of 90 to 100%.

On to `CS(=O)(=O)N[C@@H]1[C@H](Cc2cc(F)cc(-c3ccccc3F)c2F)N(C(=O)[C@H]2CCO2)CC12CC2` [Compound 350, N-((6S,7S)-5-((R)-oxetane-2-carbonyl)-6-((2,2′,5-trifluoro-[1,1′-biphenyl]-3-yl)methyl)-5-azaspiro[2.4]heptan-7-yl)methanesulfonamide], for which the EC50 was 10 to 100 nM and the Emax lay in the range of 90 to 100%.

As for `CS(=O)(=O)N[C@@H]1[C@H](Cc2cccc(-c3ccccc3)c2F)N(C(=O)[C@H](O)C(F)F)CC12CC2` [Compound 351, N-((6S,7S)-5-((S)-3,3-difluoro-2-hydroxypropanoyl)-6-((2-fluoro-[1,1′-biphenyl]-3-yl)methyl)-5-azaspiro[2.4]heptan-7-yl)methanesulfonamide], the EC50 was 10 to 100 nM and the Emax lay within 90 to 100%.

For `CS(=O)(=O)N[C@@H]1[C@H](Cc2cc(F)cc(-c3ccccc3)c2F)N(C(=O)[C@H](O)C2CC2)CC12CC2` [Compound 352, N-((6S,7S)-5-((R)-2-cyclopropyl-2-hydroxyacetyl)-6-((2,5-difluoro-[1,1′-biphenyl]-3-yl)methyl)-5-azaspiro[2.4]heptan-7-yl)methanesulfonamide], the EC50 was 1 to 10 nM and the Emax was in the range of 90 to 100%.

As to `CN(C)S(=O)(=O)N[C@@H]1[C@H](Cc2cc(F)cc(-c3ccccc3)c2F)N(C(=O)[C@H](O)CF)CC12CC2` [Compound 353], the EC50 was 1 to 10 nM and the maximal effect (Emax) fell in the range of 90 to 100%.

For `CN(C)C(=O)N1CC2(CC2)[C@H](NS(C)(=O)=O)[C@@H]1Cc1cc(F)cc(-c2ccccc2)c1F` [Compound 354, (6S,7S)-6-((2,5-difluoro-[1,1′-biphenyl]-3-yl)methyl)-N,N-dimethyl-7-(methylsulfonamido)-5-azaspiro[2.4]heptane-5-carboxamide], the EC50 is 10 to 100 nM and the maximal response (Emax) was in the range of 90 to 100%.

As to `[2H]C([2H])([2H])N(C(=O)N1CC2(CC2)[C@H](NS(C)(=O)=O)[C@@H]1Cc1cc(F)cc(-c2ccccc2)c1F)C([2H])([2H])[2H]` [Compound 355, (6S,7S)-6-((2,5-difluoro-[1,1′-biphenyl]-3-yl)methyl)-N,N-bis(methyl-d3)-7-(methylsulfonamido)-5-azaspiro[2.4]heptane-5-carboxamide], the EC50 was 10 to 100 nM and the Emax lay in the range of 90 to 100%.

Source of the values: patent publication US12503475B2 (Centessa Pharmaceuticals (UK) Limited, priority 2020, dated 2025).
